Literature values, collected in patent US12225905B2, “Antimicrobial superabsorbent compositions” (Matoke Holdings Limited, priority 2017, dated 2025).

Details: 20° C. and 1 atm

solubility: about 375 g/100 g water
Compound: O=C(CO)[C@@H](O)[C@H](O)[C@H](O)CO [Fructose]
